SMILES strings stand for the structures. ≈ marks a conversion by molar mass, not a printed value. Where “and” joins values, the source holds several entries; their conditions need not be identical. Equal entries are not always repeated. Where two headings read alike, the source gives them in different places.

Experimental findings from patent publication US10421782B2, “Cyclic cationic peptides with antimicrobial activity” (I.C.F. S.R.L., priority 2012, dated 2019) are described below.

Assay [1] has as its system Malassezia pachydermatis ATCC 14522. The assay can be described thus: Broth-microdilution test and subsequent plating on agar, fungi (yeasts). Format: cell-based. The note with it: 2 h contact at 37° C., CFU count on agar Sabouraud. On the procedure: (§1) The inoculum was set up by culturing Candida albicans ATCC 10231 and Malassezia pachydermatis ATCC 14522 in Czapek-Dox broth medium (DIFCO) for 48-72 h. On the assay day, the fungal culture was centrifuged at 1700×g for 15 min, the pellet was resuspended in phosphate buffer and submitted to shaking by the use of an electric vortex to disperse the fungal cell aggregates. The suspension was diluted until an optical density equal to an opacity of 0.5 on the McFarland turbidimetric scale was reached, which contains approximately 1-5×10^6 cell/ml (Branda J. A., Krantz A. Effectc of yeast on automated cell counting. Am J Clin Pathol., 2006:126, 248-254).
(§2) The peptides were tested for their ability to inhibit fungal growth. Fifty microliters of peptide at a concentration comprised between about 0.2 mM and about 50 mM were added in 96-well U-bottom plates containing phosphate buffer and one of the following fungi: Candida albicans ATCC 10231 and Malassezia pachydermatis ATCC 14522. After 2 h incubation at 37° C., fungi were transferred on the solid medium agar Sabouraud. As a control, fungal cultures were cultured in the absence of peptide.
(§3) The fungal suspension was put in contact for two hours with different concentrations of the peptide at the temperature of 37° C. After incubation, 20 μl were drawn from the wells of each dilution and seeded on the solid medium agar Sabouraud. The inoculum was evenly distributed on the agarized medium by means of a sterile disposable loop. After incubation for 24 h at the temperature of 37° C., counting of the fungal colonies (CFU) was performed.
A general note: Dilution methods test growth across graded concentrations, often in twofold steps.

Assay [2] deals with Candida albicans ATCC 10231. The description is as above. Format: cell-based. The note with it: 2 h contact at 37° C., CFU count on agar Sabouraud. On the procedure: as §1, §2, §3
Assay [3] has as its system meticillin-resistant S. aureus ATCC 43300. The assay is described as follows: Broth-microdilution test and subsequent plating on agar, Gram-positive bacteria. In kind it is cell-based, Staphylococcus aureus. The following applies: 2 h contact at 37° C., CFU count after 24 h. As for the experimental part:
(§4) For each bacterial strain, 3-5 morphologically similar colonies were drawn from fresh cultures, inoculated in Brain Hearth Infusion broth liquid medium and incubated at the temperature of 37° C. under shaking at 225 r.p.m. for 3-4 h. Subsequently, the bacterial suspension was centrifuged at 1000 g for 20 min and the thus obtained pellet was resuspended in phosphate buffer 10 mM. Turbidity was measured in a spectrophotometer with absorbance at 600 nm, equivalent in the range 0.08-0.13 to a concentration of about 10^8 CFU/ml. The bacterial suspension was diluted 1:100 in phosphate buffer 10 mM, and within 30 min, 50 microliters of such bacterial suspension (10^6 CFU/ml) were inoculated in each well of the microtiter plate, to obtain a final bacterial concentration of about 5×10^5 CFU/ml.
(§5) Several synthetic peptides were tested for their ability to inhibit bacterial growth. Fifty microliters of peptide at a concentration comprised between about 0.2 mM and about 50 mM were added to 96-well U-bottom plates containing phosphate buffer and one of the following bacteria: S. aureus ATCC 25923, meticillin-resistant S. aureus ATCC 43300. After 2 hour incubation at 37° C., bacteria were transferred on a solid medium. As a control, the bacterial cultures were cultured in the absence of peptide.
(§6) The bacterial suspension was put in contact for two hours with different concentrations of the peptide at the temperature of 37° C. After incubation, 20 μl were drawn from the wells of each dilution and seeded on solid medium, Columbia agar supplemented with 5% bovine red blood cells for Gram-positive bacteria. The inoculum was evenly distributed on the agarized medium by means of a sterile disposable loop. After incubation for 24 hours at the temperature of 37° C., counting of the bacterial colonies (CFU) was performed.

A further assay relates to S. aureus ATCC 25923. The assay is described as above. Format: cell-based, Staphylococcus aureus. The note with it: meticillin-sensitive, 2 h contact at 37° C., CFU count after 24 h. On the procedure: as §4, §5, §6
For assay [4], the system named is Stenotrophomonas maltophilia ATCC 13637. The assay is described as follows: Broth-microdilution test and subsequent plating on agar, Gram-negative bacteria. Format: cell-based. The note with it: 2 h contact at 37° C., CFU count after 24 h. As for the experimental part:
as §4, with “min” for “min,”
(§7) Several peptides were tested for their ability to inhibit bacterial growth in liquid culture. Fifty microliters of peptide at a concentration comprised between about 0.2 mM and 50 mM were added in 96-well U-bottom plates containing liquid growth medium and one of the following bacteria: Escherichia coli ATCC 25922, P. aeruginosa ATCC 27853, Stenotrophomonas maltophilia ATCC 13637. After 2 hour incubation at 37° C., bacteria were transferred on a solid medium. As a growth control, bacterial cultures were cultured in the absence of peptides.
(§8) The bacterial suspension was put in contact for two hours with different concentrations of the peptide at the temperature of 37° C. After incubation, 20 μl were drawn from the wells of each dilution and seeded on solid medium, agar McConkey. The inoculum was evenly distributed on the agarized medium by means of a sterile disposable loop. After incubation for 24 h at the temperature of 37° C., counting of the bacterial colonies (CFU) was performed.

For assay [5], the system named is Escherichia coli ATCC 25922. In kind it is cell-based. The following applies: for LD90 E. coli ATCC 25922: 2 h contact at 37° C., CFU count after 24 h. On the procedure: as §4, with “min” for “min,”
as §7, §8

In assay [6] the test system is Pseudomonas aeruginosa ATCC 27853. Format: cell-based. As for the experimental part:
as §4, with “min” for “min,”
as §7, §8

In the case of `CC[C@H](C)[C@@H]1NC(=O)[C@H](CCCCN)NC(=O)[C@H](C)NC(=O)[C@@H](NC(=O)[C@H](CCCCN)NC(=O)[C@@H](N)Cc2c[nH]cn2)CSSC[C@@H](C(=O)N[C@@H](C)C(=O)O)NC(=O)[C@H](Cc2ccc(O)cc2)NC(=O)[C@H](CCCCN)NC(=O)[C@H](C(C)C)NC(=O)[C@H](Cc2c[nH]cn2)NC(=O)[C@H](C(C)C)NC(=O)CNC(=O)[C@H](CCCNC(=N)N)NC(=O)[C@H](Cc2c[nH]c3ccccc23)NC(=O)[C@H](CCCCN)NC1=O` (relative stereo) [Peptide P2041, HIS*LYS*CYS*ALA*LYS*ILE*LYS*TRP*ARG*GLY*VAL*HIS*VAL*LYS*TYR*CYS*ALA], in assay [1], the “LD90 Malassezia pachydermatis” value was found to be 0.85 µM. Moreover, the “LD90 Candida albicans” value in assay [2] stood at 1.42 µM. Further, the “LD90 MRSA ATCC 43300” value in assay [3] was 0.85 µM; in assay [3] (listed as 2041), 0.85 μM and 1.72 μg/ml. Also, the “LD90 S. aureus ATCC 25923” value with S. aureus ATCC 25923 was 1.42 µM; with S. aureus ATCC 25923 (listed as 2041), 1.42 μM and 2.89 μg/ml. Moreover, the “LD90 S. maltophilia ATCC 13637” value in assay [4] turned out to be 2.67 µM. In addition, the “LD90 E. coli ATCC 25922” value in assay [5] was 0.83 µM; in assay [5] (listed as 2041) it was 1.57 μg/ml and 0.83 μM. Besides, the “MBC E. coli ATCC 25922” value in assay [5] (ATCC 25922) amounted to 3.05 µg/mL (≈ 1.51 µM). In assay [6] (2 h contact at 37° C., CFU count after 24 h), the “LD90 P. aeruginosa ATCC 27853” value is 2.14 µM. Besides, the “MBC P. aeruginosa ATCC 27853” value in assay [6] (ATCC 27853) is 2.08 µg/mL (≈ 1.03 µM).
